Experimental data: patent publication US4003915A, “Tricyclic imines” (Hoffmann-La Roche Inc., priority 1970, dated 1977)

Key:
[1] = anticonvulsant properties (no test described); details: in words
[2] = LD50 in mice on oral administration (toxicity); details: mouse, in vivo
anticholinergic activity = details: in words
antidepressant activity = details: in words
antitussive activity = details: in words
diuretic activity = details: in words
anti-Parkinson activity = details: in words

Row | Compound | LD50 [2] [mg/kg] | anticholinergic activity (anticholinergic activity) | antidepressant activity (antidepressant activity) | activity against Parkinsonism (anti-Parkinson activity) | other results
1 | CN(C)CCN=C1c2ccccc2CCc2c(Br)cccc21 [1-bromo-N-(2-dimethylamino-ethyl)-10,11-dihydro-5H-dibenzo[a,d]cyclohepten-5-imine] | ~750 | – | – | – | anticonvulsant properties [1]: strong
2 | CN(C)CCN=C1c2ccccc2CCc2c(Cl)cccc21 [1-chloro-N-(2-dimethylamino-ethyl)-10,11-dihydro-5H-dibenzo[a,d]cyclohepten-5-imine] | ~750 | very weak | acts principally as an antidepressant | – | –
3 | CCN(CC)CCN=C1c2ccccc2CCc2ccc(Cl)cc21 [3-chloro-N-(2-diethylamino-ethyl)-10,11-dihydro-5H-dibenzo[a,d]cyclohepten-5-imine] | – | – | – | – | antitussive activity (antitussive activity): strong
4 | CCN(CC)CCN=C1c2ccccc2CCc2c(Cl)cccc21 [1-chloro-N-(2-diethylamino-ethyl)-10,11-dihydro-5H-dibenzo[a,d]cyclohepten-5-imine] | – | – | – | – | diuretic activity (diuretic activity): strong
5 | CN(C)CCN=C1c2ccccc2CCc2ccccc21 [N-(2-dimethylamino-ethyl)-10,11-dihydro-5H-dibenzo[a,d]cyclohepten-5-imine] | – | – | – | very active | central and peripheral anticholinergic activity (anticholinergic activity; central and peripheral): strong
6 | CN(C)CCN=C1c2ccccc2CCc2ccc(Cl)cc21 [3-chloro-N-(2-dimethylamino-ethyl)-10,11-dihydro5H-dibenzo[a,d]cyclohepten-5-imine] | – | strong | strong | very active | –
